Target: T1, Ba/F3 cell EGFR Exon20 ins NPH (Homo sapiens, UniProt P00533, INS773NPH)
T1 construct: expressed in transfected cells; host or cells: Ba/F3
Assay: Ba/F3 cell proliferation suppression, EGFR Exon20 ins NPH
Type: cell-based
Details: GI50 class; Ba/F3 cell line with NPH inserted at Exon20 of EGFR; 72 hours
Outline: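 After 72 h compound exposure (twelve 3-fold steps, 0.3 nM–50 um final), live cells were measured by CellTiter-Glo luminescence and growth expressed as % of control to derive GI50. Cells were seeded at 3000–5000 per well a day earlier; Ba/F3 medium contained IL-3; three repeats.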

Question: With `C=CC(=O)Nc1cc(Nc2cc(N3OCC[C@@H]3c3cccc(C#N)c3)ncn2)c(OC)cc1N1CCC(N2CCN(C3CC3)C[C@@H]2C)CC1` [Example 132, N-(5-((6-((R)-3-(3-cyanophenyl)isoxazolidine-2-yl)pyrimidine-4-yl)amino)-2-(4-((S)-4-cyclopropyl-2-methylpiperazine-1-yl)piperidine-1-yl)-4-methoxyphenyl) acrylamide] as the compound, how does the “Ba/F3 (NPH) Activity” value read?
Answer: The value was “B (50 nM ≤ GI50 < 500 nM)”.

Question: `C=CC(=O)Nc1cc(Nc2cc(N3OCC[C@@H]3c3ccccc3)ncn2)c(OC)cc1N1CCC(N2C[C@H]3C[C@@H]2CO3)CC1` [Example 53, N-(2-(4-((1R,4R)-2-oxa-5-azabicyclo[2.2.1]heptane-5-yl)piperidine-1-yl)-4-methoxy-5-((6-((R)-3-phenylisoxazolidine-2-yl)pyrimidine-4-yl)amino)phenyl) acrylamide] was tested. Which “Ba/F3 (NPH) Activity” value did it give?
Answer: The value was “A (GI50 < 50 nM)”.

Question: For `C=CC(=O)Nc1cc(Nc2cc(N3OCC[C@@H]3c3ccc(F)c(F)c3)ncn2)c(OC)cc1N1CCC(N2CCN(CC)CC2)CC1` [compound 545, N-(5-((6-((R)-3-(3,4-difluorophenyl)isoxazolidine-2-yl)pyrimidine-4-yl)amino)-2-(4-(4-ethylpiperazine-1-yl)piperidine-1-yl)-4-methoxyphenyl) acrylamide], which “Ba/F3 (NPH) Activity” value is on record?
Answer: Its value is “A (GI50 < 50 nM)”.

Question: With `C=CC(=O)Nc1cc(Nc2cc(N3OCC[C@@H]3c3ccc(F)c(Cl)c3F)ncn2)c(OC)cc1N1CC[C@@H](N(C)C)C1` [compound 599, N-(5-((6-((R)-3-(3-chloro-2,4-difluorophenyl)isoxazolidine-2-yl)pyrimidine-4-yl)amino)-2-((R)-3-(dimethylamino)pyrolidine-1-yl)-4-methoxyphenyl) acrylamide] as the compound, how does the “Ba/F3 (NPH) Activity” value read?
Answer: The value was “A (GI50 < 50 nM)”.

Question: For `C=CC(=O)Nc1cc(Nc2cc(N3OCC[C@@H]3c3ccc(F)cc3F)ncn2)c(OC)cc1N1CCC(N2C[C@@H]3C[C@H]2CO3)CC1` [compound 381, N-(2-(4-((1S,4S)-2-oxa-5-azabicyclo[2.2.1]heptane-5-yl)piperidine-1-yl)-5-((6-((R)-3-(2,4-difluorophenyl)isoxazolidine-2-yl)pyrimidine-4-yl)amino)-4-methoxyphenyl) acrylamide], which “Ba/F3 (NPH) Activity” value is on record?
Answer: The value was “A (GI50 < 50 nM)”.

Question: `C=CC(=O)Nc1cc(Nc2cc(N3OCC[C@@H]3c3cccc(F)c3)ncn2)c(OC)cc1N1CCC(N2CCN(C3COC3)CC2)CC1` [Example 80, N-(5-((6-((R)-3-(3-fluorophenyl)isoxazolidine-2-yl)pyrimidine-4-yl)amino)-4-methoxy-2-(4-(4-(oxetane-3-yl)piperazine-1-yl)piperidine-1-yl)phenyl) acrylamide] was tested. Which “Ba/F3 (NPH) Activity” value did it give?
Answer: The value was “A (GI50 < 50 nM)”.

Question: With `C=CC(=O)Nc1cc(Nc2cc(N3OCC[C@@H]3c3ccccc3)ncn2)c(OC)cc1N1CCC(N2CCN(CC3CC3)CC2)CC1` [Example 91, N-(2-(4-(4-(cyclopropylmethyl)piperazine-1-yl)piperidine-1-yl)-4-methoxy-5-((6-((R)-3-phenylisoxazolidine-2-yl)pyrimidine-4-yl)amino)phenyl)acrylamide] as the compound, how does the “Ba/F3 (NPH) Activity” value read?
Answer: The value was “A (GI50 < 50 nM)”.

Question: Which “Ba/F3 (NPH) Activity” value does the source give for `C=CC(=O)Nc1cc(Nc2cc(N3OCC[C@@H]3c3ccc(Cl)c(Cl)c3)ncn2)c(OC)cc1N1CCC(N2C[C@@H]3C[C@H]2CO3)CC1` [compound 688, N-(2-(4-((1S,4S)-2-oxa-5-azabicyclo[2.2.1]heptane-5-yl)piperidine-1-yl)-5-((6-((R)-3-(3,4-dichlorophenyl)isoxazolidine-2-yl)pyrimidine-4-yl)amino)-4-methoxyphenyl) acrylamide] here?
Answer: The value was “A (GI50 < 50 nM)”.

Question: Which “Ba/F3 (NPH) Activity” value does the source give for `C=CC(=O)Nc1cc(Nc2cc(N3OCC[C@@H]3c3cccc(Cl)c3C)ncn2)c(OC)cc1N1CCC(N2CCO[C@H](C)C2)CC1` [compound 530, N-(5-((6-((R)-3-(3-chloro-2-methylphenyl)isoxazolidine-2-yl)pyrimidine-4-yl)amino)-4-methoxy-2-(4-((R)-2-methylmorpholino)piperidine-1-yl)phenyl) acrylamide] here?
Answer: The value was “A (GI50 < 50 nM)”.

Question: For `C=CC(=O)Nc1cc(Nc2cc(N3OCC[C@@H]3c3ccccc3)ncn2)c(OC)cc1N1CCC(N2CC[C@@H](N(C)C)C2)CC1` [compound 787, N-(2-(4-((R)-3-(dimethylamino)pyrolidine-1-yl)piperidine-1-yl)-4-methoxy-5-((6-((R)-3-phenylisoxazolidine-2-yl)pyrimidine-4-yl)amino)phenyl) acrylamide], which “Ba/F3 (NPH) Activity” value is on record?
Answer: Its value is “A (GI50 < 50 nM)”.

Question: How did the “Ba/F3 (NPH) Activity” value turn out when `C=CC(=O)Nc1cc(Nc2cc(N3OCC[C@@H]3c3cc(F)cc(F)c3)ncn2)c(OC)cc1N1CCC(N2C[C@@H](C)N(C3CC3)C[C@H]2C)CC1` [Example 114, N-(2-(4-((2R,5R)-4-cyclopropyl-2,5-dimethylpiperazine-1-yl)piperidine-1-yl)-5-((6-((R)-3-(3,5-difluorophenyl)isoxazolidine-2-yl)pyrimidine-4-yl)amino)-4-methoxyphenyl) acrylamide] was run?
Answer: Its value is “A (GI50 < 50 nM)”.

Question: With `C=CC(=O)Nc1cc(Nc2cc(N3OCC[C@@H]3Cc3cccc(Cl)c3Cl)ncn2)c(OC)cc1N1CCC(N2CCN(C3CC3)[C@H](C)C2)CC1` [compound 980, N-(2-(4-((R)-4-cyclopropyl-3-methylpiperazine-1-yl)piperidine-1-yl)-5-((6-((S)-3-(2,3-dichlorobenzyl)isoxazolidine-2-yl)pyrimidine-4-yl)amino)-4-methoxyphenyl) acrylamide] as the compound, how does the “Ba/F3 (NPH) Activity” value read?
Answer: The value was “A (GI50 < 50 nM)”.

Question: With `C=CC(=O)Nc1cc(Nc2cc(N3OCC[C@@H]3c3cccc(Cl)c3F)ncn2)c(OC)cc1N1CCC(N2CCN(C3CC3)C[C@H]2C)CC1` [Example 149, N-(5-((6-((R)-3-(3-chloro-2-fluorophenyl)isoxazolidine-2-yl)pyrimidine-4-yl)amino)-2-(4-((R)-4-cyclopropyl-2-methylpiperazine-1-yl)piperidine-1-yl)-4-methoxyphenyl) acrylamide] as the compound, how does the “Ba/F3 (NPH) Activity” value read?
Answer: Its value is “A (GI50 < 50 nM)”.

Question: Which “Ba/F3 (NPH) Activity” value does the source give for `C=CC(=O)Nc1cc(Nc2cc(N3OCC[C@@H]3c3cccc(F)c3)ncn2)c(OC)cc1N1CCC(N2CCN(C3CC3)CC2)CC1` [Example 64, N-(2-(4-(4-cyclopropylpiperazine-1-yl)piperidine-1-yl)-5-((6-((R)-3-(3-fluorophenyl)isoxazolidine-2-yl)pyrimidine-4-yl)amino)-4-methoxyphenyl) acrylamide] here?
Answer: The value was “A (GI50 < 50 nM)”.

Question: Which “Ba/F3 (NPH) Activity” value does the source give for `C=CC(=O)Nc1cc(Nc2cc(N3OCC[C@@H]3c3cc(F)ccc3F)ncn2)c(OC)cc1N1CCC(N2CCN(C3CC3)CC2)CC1` [Example 61, N-(2-(4-(4-cyclopropylpiperazine-1-yl)piperidine-1-yl)-5-((6-((R)-3-(2,5-difluorophenyl)isoxazolidine-2-yl)pyrimidine-4-yl)amino)-4-methoxyphenyl) acrylamide;] here?
Answer: The value was “A (GI50 < 50 nM)”.

Question: For `C=CC(=O)Nc1cc(Nc2cc(N3OCC[C@@H]3c3ccc(F)c(Cl)c3)ncn2)c(OC)cc1N1CCC(N2C[C@H](C)N(C3CC3)C[C@@H]2C)CC1` [Example 121, N-(5-((6-((R)-3-(3-chloro-4-fluorophenyl)isoxazolidine-2-yl)pyrimidine-4-yl)amino)-2-(4-((2S,5S)-4-cyclopropyl-2,5-dimethylpiperazine-1-yl)piperidine-1-yl)-4-methoxyphenyl) acrylamide], which “Ba/F3 (NPH) Activity” value is on record?
Answer: The value was “A (GI50 < 50 nM)”.
